Test results: the supplement of paper PMC10307832

Legend:
Assay in all cases: relative viability (nuclei count vs DMSO), 5 days (fraction); higher = more cells survive
[1] = compound: C=CC(=O)N1CCC[C@@H](n2nc(-c3ccc(Oc4ccccc4)cc3)c3c(N)ncnc32)C1 [Ibrutinib] + CC1(C)CCC(c2ccc(Cl)cc2)=C(CN2CCN(c3ccc(C(=O)NS(=O)(=O)c4ccc(N[C@H](CCN5CCOCC5)CSc5ccccc5)c(S(=O)(=O)C(F)(F)F)c4)cc3)CC2)C1 [Navitoclax] (partner 0.5 µM)
In short: (§1)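 Lung cancer cell lines were seeded in 1536-well plates and dosed by pin tool the next day, with either a single drug or a fixed anchor-drug dose combined with five library-drug doses (not always all listed) spaced in √10 steps. Five days later, one step fixed the cells and stained their nuclei (final 0.05% Triton X-100, 1% formaldehyde, 1 ug/ml Hoechst), and nuclei were counted on 4× images. Relative viability is the nuclei count in treated wells divided by the count in vehicle wells, and each value is the median of duplicate plates.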

[2] = compound: C=CC(=O)Nc1cc(-n2c(=O)ccc3cnc4ccc(-c5ccc(NS(C)(=O)=O)cc5)cc4c32)ccc1C [BMX-IN-1] + CC(=O)c1c(C)c2cnc(Nc3ccc(N4CCNCC4)cn3)nc2n(C2CCCC2)c1=O [Palbociclib] (partner 0.5 µM)
In short: as §1

[3] = compound: C=CCc1cccc(/C=N/NC(=O)CN2CCN(Cc3ccccc3)CC2)c1O [PAC-1] + Nc1nc2[nH]cc(CCc3ccc(C(=O)N[C@@H](CCC(=O)O)C(=O)O)cc3)c2c(=O)[nH]1 [Pemetrexed] (partner 0.2 µM)
In short: as §1

[4] = compound: C=CC(=O)N1CCC[C@@H](n2nc(-c3ccc(Oc4ccccc4)cc3)c3c(N)ncnc32)C1 [Ibrutinib] + COc1cccc2cc(-c3nc([C@H]4CC[C@H](C(=O)O)CC4)n4ncnc(N)c34)[nH]c12 [OSI-027] (partner 0.5 µM)
In short: as §1

Row | Cell Line | relative viability ([1]; first compound 0.005 µM) | relative viability ([1]; first compound 0.01581 µM) | relative viability ([1]; first compound 0.05 µM) | relative viability ([1]; first compound 0.1581 µM) | relative viability ([1]; first compound 0.5 µM) | relative viability ([2]; first compound 0.02 µM) | relative viability ([2]; first compound 0.2 µM) | relative viability ([2]; first compound 0.6325 µM) | relative viability ([2]; first compound 2 µM) | relative viability ([3]; first compound 0.02 µM) | relative viability ([3]; first compound 0.06325 µM) | relative viability ([3]; first compound 0.2 µM) | relative viability ([3]; first compound 2 µM) | relative viability ([4]; first compound 0.005 µM) | relative viability ([4]; first compound 0.01581 µM) | relative viability ([4]; first compound 0.05 µM) | relative viability ([4]; first compound 0.1581 µM) | relative viability ([4]; first compound 0.5 µM)
1 | HCC-827 | 1.01 | 0.995 | 1.08 | 1.04 | 0.434 | 0.486 | 0.409 | 0.503 | 0.467 | 0.275 | 0.259 | 0.256 | 0.256 | 0.727 | 0.67 | 0.648 | 0.783 | 0.45
2 | HOP-62 | 1.16 | 1.11 | 1.16 | 1.07 | 1.2 | 0.53 | 0.543 | 0.48 | 0.471 | 0.356 | 0.267 | 0.312 | 0.34 | 0.689 | 0.733 | 0.832 | 0.982 | 0.924
3 | IA-LM | 0.768 | 0.853 | 0.79 | 0.79 | 0.951 | – | – | – | – | – | – | – | – | – | – | – | – | –
4 | LC-2-ad | 0.408 | 0.362 | 0.535 | 0.477 | 0.402 | 0.498 | 0.574 | 0.543 | 0.509 | 0.26 | 0.296 | 0.265 | 0.27 | 0.741 | 0.746 | 0.797 | 0.792 | 0.752
5 | LCLC-97TM1 | 0.486 | 0.561 | 0.474 | 0.398 | 0.377 | 0.247 | 0.3 | 0.227 | 0.217 | 0.184 | 0.177 | – | 0.191 | 0.586 | 0.425 | 0.558 | 0.487 | 0.483
6 | LCLC-103H | – | – | – | – | – | 0.475 | 0.532 | 0.479 | 0.412 | 0.468 | 0.419 | 0.436 | 0.451 | 0.459 | 0.409 | 0.485 | 0.393 | 0.485
7 | LK-2 | – | 0.7 | 0.851 | 0.956 | 0.75 | 1.1 | 0.75 | 0.704 | 0.895 | 0.238 | 0.244 | 0.246 | 0.321 | 0.151 | 0.203 | 0.203 | 0.174 | 0.212
8 | LOU-NH91 | 0.601 | 0.572 | 0.549 | 0.585 | 0.407 | – | 0.541 | 0.488 | 0.546 | 0.368 | 0.365 | 0.379 | 0.39 | 0.586 | 0.617 | 0.555 | 0.659 | 0.448
9 | LU99A | 0.725 | 0.684 | 0.772 | 0.814 | 0.664 | 0.45 | 0.428 | 0.421 | 0.411 | 0.192 | 0.162 | 0.182 | 0.177 | 0.245 | 0.254 | 0.323 | 0.32 | 0.288
10 | LXF-289 | 1.02 | 0.895 | 0.956 | 0.97 | 0.917 | 0.65 | 0.615 | 0.639 | 0.588 | 0.857 | 0.859 | 0.873 | 0.916 | 0.762 | 0.722 | 0.771 | 0.702 | 0.695
11 | NCI-H23 | 0.853 | 0.886 | 0.771 | 0.787 | 0.97 | 0.536 | 0.526 | 0.555 | 0.47 | 0.623 | 0.705 | 0.817 | 0.775 | 0.331 | 0.562 | 0.681 | 0.57 | 0.607
12 | NCI-H358 | – | – | – | – | – | 0.129 | 0.138 | 0.147 | 0.122 | 0.165 | 0.161 | 0.187 | 0.183 | 0.486 | – | 0.378 | 0.488 | 0.211
13 | NCI-H522 | – | – | – | – | – | 0.841 | 1.14 | 1.02 | 0.86 | 0.945 | 0.902 | 1.08 | 0.955 | 0.656 | 0.693 | 0.692 | 0.597 | 0.648
14 | NCI-H596 | 0.924 | 0.867 | 0.852 | 0.962 | 0.681 | – | – | – | – | 0.435 | 0.471 | 0.477 | 0.54 | – | 0.777 | 0.625 | 0.675 | 0.526
15 | NCI-H650 | – | – | – | – | – | 0.293 | 0.332 | 0.331 | 0.353 | 0.893 | 0.931 | 0.968 | 1.03 | 0.515 | 0.481 | 0.518 | 0.621 | 0.539
16 | NCI-H661 | – | – | – | – | – | 0.388 | 0.39 | 0.421 | 0.398 | 0.906 | 0.877 | 0.88 | 0.882 | 0.702 | 0.674 | 0.476 | 0.698 | 0.423
17 | NCI-H727 | 0.475 | 0.405 | 0.374 | 0.449 | 0.42 | 0.611 | 0.672 | 0.625 | 0.592 | – | – | – | – | 0.506 | 0.591 | 0.674 | – | 0.577
18 | NCI-H1299 | 1.07 | 1.02 | 1.11 | 1.07 | 1.04 | – | – | – | – | – | – | – | – | – | – | – | – | –
19 | NCI-H1563 | – | – | – | – | – | – | – | – | – | 0.787 | 0.746 | 0.776 | 0.949 | 0.753 | 0.71 | 0.694 | 0.825 | 0.766
20 | NCI-H1623 | – | – | – | – | – | – | – | – | – | – | – | – | – | 0.42 | 0.403 | 0.32 | 0.42 | 0.313
21 | NCI-H1648 | – | – | – | – | – | 0.251 | 0.256 | 0.286 | 0.31 | 0.676 | 0.838 | 0.81 | 0.646 | 0.243 | 0.288 | 0.278 | 0.256 | 0.306
22 | NCI-H1703 | 0.896 | 0.96 | 1.05 | 1.17 | 0.731 | – | – | – | – | – | – | – | – | – | – | – | – | –
23 | NCI-H2342 | – | – | – | – | – | 0.578 | 0.519 | 0.51 | 0.568 | 0.851 | 0.754 | 0.727 | 0.781 | 0.462 | 0.566 | 0.494 | 0.532 | 0.505
24 | SW 900 | – | – | – | – | – | 0.467 | 0.676 | 0.53 | 0.626 | – | 0.456 | 0.456 | 0.531 | – | – | 0.532 | 0.442 | 0.62
